The source of these data is the METLIN SMRT retention time set (Domingo-Almenara et al. 2019).

Molecules are shown by their SMILES.

This data set can be described thus: gradient 5% acetonitrile 3 min, to 50% in 2 min, to 85% in 15 min, held 3 min, 100 µL/min. To be noted: column: Zorbax Extend-C18 2.1 x 50 mm; eluents: water / acetonitrile, 0.1% formic acid. The gist of the method: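 Retention times of pure standards were taken from adduct peaks that were selected by computer and manually inspected. Over 3 months, mixtures of ~100 molecules were run by HPLC–quadrupole time-of-flight mass spectrometry in positive and negative ionization mode. The Zorbax Extend-C18 column (2.1 × 50 mm, 1.8 μm) ran at 100 μL/min in water and acetonitrile, each containing 0.1% formic acid, with 40 μL dead volume and 900 μL dwell volume.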
With `COc1ccc(Cl)cc1N1CC(c2nc3ccccc3n2CC(=O)N2CCOCC2)CC1=O` (stereo not given), the RP-LC retention time amounted to 662 s.
The value for `O=C(c1ccoc1)N1CCCC(c2nnc3n2CCN(C2CCCC2)C3)C1` (stereo not given) was 562 s; that for `CCc1ccc(NC(=O)Nc2ccc(NC(=O)N3CCC(C(=O)NC)CC3)cc2)cc1` was 704 s; that for `Cc1ccc(N2CCC(NC(=O)Nc3ccc(C)c(C)c3)C2=O)cc1` (stereo not given) was 902 s.
For `Cn1cnc2ccc(-c3noc(-c4ccc(Br)cc4)n3)cc21` the value was 848 s.
For `CCN(CC)S(=O)(=O)c1ccc2c(c1)N(CC(=O)NCCc1cnc[nH]1)C(=O)C1CCCCN21` (stereo not given) the value was 655 s.
In turn, `O=C(c1sc(N2CCCCC2)nc1-c1ccccc1)c1c[nH]c2ccccc12` gave an RP-LC retention time of 1080 s.
Consider `CCOC(=O)c1c(C)[nH]c(CCC(=O)NCCN2CCCC2)c1C`, for which the RP-LC retention time is 554 s.
The value for `COc1ccc(OC)c(NC(=O)C2CCN(S(=O)(=O)c3cc(-c4noc(C)n4)cs3)CC2)c1` was 931 s; that for `CC1CCCC(NC(=O)Cn2cnc3c(nc4n3CCCCC4)c2=O)C1C` (stereo not given) was 711 s; that for `O=C(Cc1ccsc1)NCc1cnoc1-c1ccc(F)cc1` was 844 s.
For `COCCN(Cc1ccsc1)C(=O)C1(c2cccs2)CCCC1` the value was 1070 s; for `CCc1cc(=O)oc2cc(C)cc(OC(C)C(=O)N3CCC4(O)CCCCC4C3)c12` (stereo not given), 817 s; for `COc1ccc(S(=O)(=O)N2CCN(c3cc(-n4ccnc4)nc(C)n3)CC2)cc1Cl`, 664 s.
The value for `CCn1nccc1C(=O)NC1CCN(c2ncnc3c2CCC3)C1` (stereo not given) was 585 s; that for `CCCC(=O)Nc1ccc2c(c1)CN(C(=O)c1ccc(C#N)cc1)C(C(=O)N(C)C)C2` (stereo not given) was 681 s.
Regarding `CNC(=O)[C@@H]1CN(C(=O)c2noc(C)c2COC)C[C@H]1c1nc(C)no1`, the RP-LC retention time was found to be 619 s.
For `Cc1ccc(CNC(=O)Cn2ccc3c(SCc4ccc(F)cc4)nccc32)o1` the value was 735 s; for `CCC1CN2C=NC(N3CCN(C(=O)Nc4cccc(SC)c4)CC3)=CC2=N1` (stereo not given), 663 s; for `CCn1ncn2cc(S(=O)(=O)Nc3ccc(F)cc3)cc2c1=O`, 848 s.
The value for `Cc1ccc(C)c(N2CCN(c3ccnc(SCC(=O)Nc4cccc(C)c4C)n3)CC2)c1` was 1000 s; that for `CC(C)NC(=O)N1CCCC(c2cccc(C(=O)NCCN3CCCCC3C)c2)C1` (stereo not given) was 624 s.
For `Cc1oc(-c2[nH]ncc2C(=O)N2CCOCC2)cc1S(=O)(=O)Nc1ccccc1` the value was 655 s.
Compound `COC[C@@H]1CN(Cc2cccc(OC)n2)C[C@H]1c1ccncc1` yielded an RP-LC retention time of 536 s.
For `Cc1noc(CNC(=O)c2cc(C)on2)n1` the value was 592 s; for `CCCOc1nc2ccccc2nc1N1CCCC(C(=O)Nc2cccc(C)c2C)C1` (stereo not given), 1390 s.
For `O=C(Cn1c(CN2CCCCCC2)nc2ccccc21)N1CCCCCC1` the value was 678 s; for `CC(=O)N1CCCC(c2nc(CNC(=O)C3CCC3)cs2)C1` (stereo not given), 631 s; for `O=C(NCc1ccco1)C1CCN(c2nc3ccccc3nc2C(F)(F)F)CC1`, 1000 s.
For `CCCCN(C)CCCNC(=O)C1CCN(S(=O)(=O)CCC)CC1` the value was 968 s; for `Cc1nc2cccnc2n1C1CCN(C(=O)Nc2ccccc2Br)CC1`, 637 s.
In turn, `CN(C)c1ccc(CNC(=O)c2cc(=O)n3c(nc4ccccc43)s2)cc1` returned an RP-LC retention time of 805 s.
The value for `CCOc1ccc(S(=O)(=O)N2CCC(c3noc(-c4ccccc4C)n3)CC2)cc1` was 1180 s.
In turn, `CC(=O)c1ccc(NC(=O)C2CC(=O)N(c3ccc4oc(C)nc4c3)C2)cc1` (stereo not given) registered an RP-LC retention time of 685 s.
For `CCCS(=O)(=O)N1CCCC(c2nnc(-c3cccs3)o2)C1` (stereo not given) the value was 749 s; for `O=C(NCc1ccc(F)cc1F)c1ccc2c(c1)nc1n2CCN(C2CCCCC2)C1=O`, 806 s.
In the case of `CCn1ncc(C(=O)N2CC(n3cc(COc4ccc(F)cc4)nn3)C2)c1C`, the RP-LC retention time amounted to 714 s.
The value for `CN1C(=O)c2cc(S(=O)(=O)Nc3ccc(F)cc3Cl)ccc2Oc2cccnc21` was 943 s; that for `CC1CCCN(C(=O)C2CCN(c3cc(N4CCCCC4)ncn3)CC2)C1` (stereo not given) was 683 s; that for `Cc1cc(NC(=O)c2ccccc2)cc(C)c1O` was 705 s.
Take `O=C(Nc1ccc(N2CCN(c3ccccc3)C2=O)nc1)c1ccc(F)cc1`: the RP-LC retention time was determined as 934 s.
For `Cn1c(N2CCN(C(=O)COc3ccc(Cl)cc3)CC2)cc(=O)n(C)c1=O` the value was 666 s; for `Cn1nccc1-c1cccc(-c2noc(-c3ccc(F)c(Cl)c3)n2)c1`, 1280 s.
The value for `Cc1nc(Cn2cccc2C(=O)Nc2ccc(C)c(F)c2)no1` was 889 s; that for `CCCCNC(=O)Cc1nnc(-c2ccc(OC)cc2)o1` was 736 s.
For `Cc1ccc(CNC(=O)C2CCCN(c3cnc4nccnc4c3)C2)o1` (stereo not given) the value was 772 s.
`COc1ccc(NS(=O)(=O)c2cc(-c3nnc(C(=O)N4CCCC4)o3)sc2C)c(OC)c1` had an RP-LC retention time of 846 s.
For `COc1ccc(-c2nc(-c3ccc(S(=O)(=O)N4CCC(C)CC4)cc3)no2)cc1` the value was 1340 s; for `Cc1ccc(CNC(=O)Cn2nc3c(Oc4cc(C)cc(C)c4)nccn3c2=O)cc1`, 943 s; for `O=C(c1ccc(F)cc1F)N1CCN(c2cc(-c3ccc(F)cc3)[nH]n2)CC1`, 736 s.
For `CCCCNC(=O)C1CCCN(C(=O)c2[nH]c(C)c(C(=O)OC(C)C)c2C)C1` (stereo not given) the value was 754 s; for `COc1ccccc1-c1noc(C2CCCN2C(=O)C2CCC2)n1` (stereo not given), 831 s; for `CCOC(=O)c1noc2ncnc(N3CCN(c4ccc(OC)cc4)CC3)c12`, 955 s.
For `O=C(NCc1ccc(F)cc1F)c1c(O)c2cccnc2n(-c2cccc(F)c2)c1=O` the value was 1190 s; for `Cc1nnc(-c2ccc3ccn(CC(=O)Nc4ccc(F)cc4)c3c2)o1`, 795 s; for `COc1ccc(-c2ccc(=O)n(Cc3nc(-c4cccc(Br)c4)no3)n2)cc1`, 997 s.
`COc1ccc(-c2noc(C3CCCN3C(=O)Nc3ccccc3Br)n2)cc1` (stereo not given): the RP-LC retention time was 1070 s.
The value for `Cc1nccn1C1CN(C(=O)CCCc2c[nH]c3ccccc23)C1` was 611 s; that for `CCCc1cc(N2CCN(C(=O)C(C)Oc3ccccc3)CC2)nc2nnc(C)n12` (stereo not given) was 656 s.
The value for `O=C(c1ccco1)N1CCCC(Nc2ncnc3c2CCC3)C1` (stereo not given) was 570 s.
For `Cc1cc(C)n(CCNC(=O)CN2CCN(c3ccc4c(c3)OCCO4)C2=O)n1` the value was 616 s.
Compound `CCCn1cc(S(=O)(=O)Nc2cccc(CC)c2)c2cccnc21` showed an RP-LC retention time of 943 s.
For `O=c1c2cc(-c3ccccc3)nn2ccn1Cc1noc(CN2CCCCCC2)n1` the value was 671 s.
The value for `O=C(CSc1ccc(-n2cccn2)nn1)NCc1ccco1` was 653 s; that for `COCCn1cc(CCNC(=O)Nc2ccccc2Cl)c2cccnc21` was 752 s; that for `O=S(=O)(c1cc(-c2nnc(C3CCC3)o2)co1)N1CCN(c2ccccc2)CC1` was 1050 s.
For `CC1CCN(C(=O)C2CCN(S(=O)(=O)c3cc(C(=O)N4CCCC4)n(C)c3)CC2)CC1` the value was 750 s; for `Cc1[nH]c(-c2ccccc2)cc1C(=O)N1CCCCCC1`, 896 s; for `O=C(C1CCN(c2nc3ccc(-c4cccs4)nc3s2)CC1)N1CCCC1`, 893 s.
Compound `O=C1NC(C(=O)Nc2cccc(Cl)c2)Cn2cccc21` (stereo not given) had an RP-LC retention time of 721 s.
For `O=C(Cn1nc2c(cc1=O)CCCCC2)NCCc1c[nH]c2ccc(F)cc12`, the RP-LC retention time amounted to 794 s.
For `CCOc1ccccc1CNC(=O)C1CCCN(c2ccc(=O)n(-c3ccc(CC)cc3)n2)C1` (stereo not given) the value was 978 s.
The value for `CC1CCN(S(=O)(=O)c2ccc3c(ccc(=O)n3CC(=O)NC3CCCc4ccccc43)c2)CC1` (stereo not given) was 919 s; that for `CS(=O)(=O)NCCc1ccc(CC2CCNCC2)cc1` was 588 s; that for `COc1ccc(-n2c(=O)c(C(=O)NCc3cc(F)cc(F)c3)c(O)c3cccnc32)cc1` was 1170 s.
For `Cc1ccc(CCNC(=O)C2CCN(S(=O)(=O)c3ccc4c(c3)CCCC(=O)N4)CC2)cc1` the value was 781 s; for `CCc1noc2nc(C)nc(N3CCCC(C(=O)NC4CC4)C3)c12` (stereo not given), 711 s; for `CCCCc1ccc(Nc2c(C(=O)N3CCSCC3)cnc3nc(C)ccc23)cc1`, 723 s.
In the case of `CCCn1cc(-c2ccncc2)cc1C(=O)NCc1ccc(F)cc1`, the RP-LC retention time came to 680 s.
For `COc1cc(NC(=O)C2CCCN(c3nccnc3Sc3ccccc3)C2)cc(OC)c1OC` (stereo not given) the value was 984 s.
